Patent publication US9617249B2, “Benzoheterocyclic anti-bacterial agents” (UNIVERSITY OF NOTRE DAME DU LAC, priority 2008, dated 2017)
Values after ≈ are worked out from the molar mass of the structure shown.

Key:
Assay type in all cases: cell-based
[1] = tested on: Gram-positive clinical isolate strains; assay: Potency and selectivity against panel of Gram-positive clinical isolate strains; details: Ciprofloxacin standard (FIG. 9)
Text: (§1) FIG. 9 illustrates the potency and selectivity of ND-7901 against a panel of Gram-positive clinical isolate strains compared to a Ciprofloxacin standard in micrograms per milliliter. […] FIG. 10 illustrates the potency and selectivity of ND-7901 against a panel of Gram-negative clinical isolate strains compared to a Ciprofloxacin standard in micrograms per milliliter.

[2] = tested on: Gram-negative clinical isolate strains; assay: Potency and selectivity against panel of Gram-negative clinical isolate strains; details: Ciprofloxacin standard (FIG. 10)
Text: as §1

[3] = tested on: Gram-positive strains; assay: MIC and MBC determinations against Gram-positive strains; details: most Gram-positive isolates (FIG. 11)
Method: FIG. 11 illustrates the minimum inhibitory concentration (MIC) and the minimum bactericidal concentration (MBC) determinations of ND-7901 to various Gram-positive strains. A series of broths were mixed with solutions of diluted drug an inoculum was applied. After incubation, the MIC was determined as the first concentration in which the growth of the organism has been inhibited. In contrast, the MBC was measured by inoculating the series of broths used for the MIC determination onto drug-free medium. The MBC is the first dilution at which growth is not observed. ND-7901 is bactericidal against most Gram-positive isolates.

[4] = tested on: methicillin-sensitive S. aureus (MSSA), ATCC 29213; assay: Time-kill assay; details: MSSA ATCC 29213, drug at various concentrations, Vancomycin as control (FIG. 12)
[5] = tested on: S. aureus strains; assay: Mutational analysis by growth without selection and recovery on drug plates; details: overnight growth with no selection, drug plates at 2-4 times the MIC (FIG. 13)
Text: FIG. 13 illustrates a mutational analysis of […] by growth of S. aureus strains overnight with no selection and recovery of resistant colonies on drug plates at 2-4 times the MIC value.

[6] = tested on: S. aureus strains; assay: Mutational analysis by serial transfer experiments; details: 0.5-2 times the MIC, after 8 passages (FIG. 14)
Method: FIG. 14 illustrates the mutational analysis of ND-7901 by serial transfer experiments. As such, the S. aureus strains were grown with ND-7901 (0.5-2 times the MIC) added and passed serially until resistance was found.

[7] = tested on: Methicillin-resistant Staphylococcus aureus (MRSA); assay: MIC against MRSA
Text: (§2) In embodiments, various molecules as described herein have surprising activity against MRSA. […] While this particular molecule has been tested previously, the present application is the first disclosure of this compound having activity against multi-drug resistant “super bug” strains. In addition, in accordance with an embodiment described herein, this compound and analogs thereof may be synthesized in high yields in just a single step. Further embodiments herein provide analogs of the afore-mentioned compounds and methods of making and using such compounds.
(§3) In accordance with an embodiment, in order to first broadly screen these compounds, an agar diffusion assay was employed to determine whether these compounds have any activity against a diverse array of organisms which include MRSA and VRE. […] FIG. 4 illustrates selectivity and potency of various benzimidazoles, benzthiazoles, and benzoxazoles against a panel of microorganisms including gram-positive bacteria, gram-negative bacteria, fungi, yeast, and mycobacteria. The minimum inhibition concentration at 90% is shown in micromolar concentration. […] Therefore many of the compounds had their MICs determined which reflected many of the findings of the diffusion assay. FIG. 5 illustrates the chemical structure, molecular weight, and chemical formula of most of the compounds of FIG. 4.

[8] = tested on: Vancomycin-Resistant Enterococcus (VRE); assay: MIC against VRE
Text: as §2, §3

| MIC [7] [µM] | MIC [8] [µM] | Structure (SMILES) | activity against Gram-positive isolates [1] | activity against Gram-negative isolates [2] | bactericidal character (MBC versus MIC) [3] | kinetics of bacteria death (time-kill) [4] | spontaneous resistant mutants recovered [5] | level of resistance after serial passage [6] |
| --- | --- | --- | --- | --- | --- | --- | --- | --- |
|  |  | O=[N+]([O-])c1ccc(-c2nc3cccc(O)c3[nH]2)o1 [ND-7901] | good activity | limited activity | bactericidal | rapid kinetics of bacteria death | no spontaneous mutants were recovered | very low level of resistance |
| 8 (≈ 1.83 µg/mL) | 16 (≈ 3.67 µg/mL) | O=[N+]([O-])c1ccc(-c2nc3ccccc3[nH]2)o1 [nitrofuran benzimidazole] |  |  |  |  |  |  |
